Test results: ChEMBL document CHEMBL5727717, “ABHD6 and dual ABHD6/MGL inhibitors and their uses” (2020)

How the values were obtained:
Monoglyceride lipase = molecular target: T1, Monoglyceride lipase (Homo sapiens, UniProt Q99685); test: This medium throughput assay involved a 96-well plate format in which hMGL activity was monitored by the hydrolysis of the substrate 7-hydroxy-6-methoxy-4-methylcoumarin ester (AHMMCE) to form the fluorescent product, coumarin. […] Upon the addition of AHMMCE, the reaction was incubated at 25° C. for 120 min; fluorescence readings were taken every 15 min at 360 nm/460 nm (λexcitation/λemission) using a Synergy HT Plate Reader (Bio-Tek, Winooski, Vt.). […] External standards were used to convert relative fluorescence units to the amount of 4-methylcoumarin formed.
T1 sequence (Q99685 whole entry): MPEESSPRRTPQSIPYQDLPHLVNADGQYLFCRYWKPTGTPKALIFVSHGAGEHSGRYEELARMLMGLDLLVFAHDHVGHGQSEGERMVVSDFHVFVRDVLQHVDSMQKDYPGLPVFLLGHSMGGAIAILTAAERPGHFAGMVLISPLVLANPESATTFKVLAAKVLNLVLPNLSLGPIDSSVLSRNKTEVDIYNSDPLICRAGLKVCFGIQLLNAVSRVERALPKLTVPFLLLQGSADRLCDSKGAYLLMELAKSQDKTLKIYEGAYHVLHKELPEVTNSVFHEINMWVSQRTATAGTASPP

[1] = Fluorescent Assay: hABHD6:Initial Fluorescent Inhibition Assay (3-Point)—In each well of a 96-well plate 8 μL of membrane fraction containing full-length hABHD6 (1 μg total protein) was mixed with 168 μL of assay buffer (50 mM Tris-HCl, pH 7.6), and 20 μL of diluted compound (diluted in a dilution buffer consisting of 50% DMSO/50% assay buffer v/v). Each plate was incubated at RT for 15 minutes before adding 4 μL of 1 mM AHMMCE substrate (final concentration of 20 μM AHMMCE and final volume of 200 μL). The reaction was allowed to proceed for 1 hr at RT before the fluorescence was read at λex 360 nm and λem 460 nm and the inhibition calculated. Each experiment can test 8 compounds at three concentrations (usually 10 μM, 1 μM, and 100 nM).

| Compound | IC50 (Monoglyceride lipase) | IC50 [1] |
| --- | --- | --- |
| O=C(OC(C(F)(F)F)C(F)(F)F)N1Cc2ccc(N3CCS(=O)(=O)CC3)cc2C1 | > 1 µM |  |
| O=C(OC(C(F)(F)F)C(F)(F)F)N1CCC2(CC(OC(c3ccc(F)cc3)c3ccc(F)cc3)C2)C1 (configuration not stated) |  | > 1 µM |
